Results taken from patent US20200207734A1, “HETEROCYCLIC COMPOUND AND USE THEREOF” (Takeda Pharmaceutical Company Limited, priority 2017, published 2020).

Each molecule was assayed against T1, human orexin type 2 receptor (Homo sapiens, UniProt O43614) (assay: Measurement of orexin type 2 receptor agonist activity (calcium fluorescence, CHO cells expressing hOX2R)). Details: test compound 3 μM; CHO cells expressing human OX2 receptor; DMSO = 0%, orexin A (human) = 100%.
T1 construct: human orexin type 2 receptor cDNA was inserted into pcDNA3.1(+) plasmid vector (Invitrogen); expressed in transfected cells
T1 sequence (O43614 1-444): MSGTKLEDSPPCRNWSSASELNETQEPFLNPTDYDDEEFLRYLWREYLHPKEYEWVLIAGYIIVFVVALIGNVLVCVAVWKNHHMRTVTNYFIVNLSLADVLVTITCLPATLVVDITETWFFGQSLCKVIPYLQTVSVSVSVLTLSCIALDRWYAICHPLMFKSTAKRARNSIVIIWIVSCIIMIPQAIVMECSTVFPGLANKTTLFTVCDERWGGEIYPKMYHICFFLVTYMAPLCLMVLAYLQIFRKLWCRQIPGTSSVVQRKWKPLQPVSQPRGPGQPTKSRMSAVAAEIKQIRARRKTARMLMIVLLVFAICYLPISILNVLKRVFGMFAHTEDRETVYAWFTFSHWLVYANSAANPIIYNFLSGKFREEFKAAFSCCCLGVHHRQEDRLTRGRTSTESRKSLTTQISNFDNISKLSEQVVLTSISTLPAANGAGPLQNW
Type: cell-based
In short: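 CHO-dhfr cells stably expressing hOX2R, loaded with Fluo-4 AM in HBSS/20 mM HEPES/0.1% BSA with probenecid, then given test compound. Calcium fluorescence was read for about 2 min 40 sec. Activity (%) was scaled between DMSO (0%) and 10 nM final human orexin A (100%).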

| Structure (SMILES) | OX2R agonist activity (3 μM, %) [%] |
| --- | --- |
| CS(=O)(=O)N[C@H]1CCN(C(=O)C2CCC2)[C@H]1Cc1csc(-c2cccc(F)c2)n1 [Example 320, N-((2S,3S)-1-(cyclobutylcarbonyl)-2-((2-(3-fluorophenyl)-1,3-thiazol-4-yl)methyl)pyrrolidin-3-yl)methanesulfonamide] | 103 |
| O=C(C1CCC1)N1CC[C@H](NS(=O)(=O)C2CC2)[C@@H]1Cc1csc(-c2ccccc2)n1 [Example 321, N-((2S,3S)-1-(cyclobutylcarbonyl)-2-((2-phenyl-1,3-thiazol-4-yl)methyl)pyrrolidin-3-yl)cyclopropanesulfonamide] | 104 |
| COCS(=O)(=O)N[C@H]1CCN(C(=O)C2CCC2)[C@H]1Cc1cccc(-c2ccccc2)c1 [Example 324, N-((2S,3S)-2-(biphenyl-3-ylmethyl)-1-(cyclobutylcarbonyl)pyrrolidin-3-yl)-1-methoxymethanesulfonamide] | 103 |
| CS(=O)(=O)N[C@H]1CCN(C(=O)C2CCO2)[C@H]1Cc1cccc(-c2cccc(F)c2)c1 (stereo partly drawn) [Example 328, N-((2S,3S)-2-((3′-fluorobiphenyl-3-yl)methyl)-1-(oxetan-2-ylcarbonyl)pyrrolidin-3-yl)methanesulfonamide] | 104 |
| CS(=O)(=O)N[C@H]1CCN(C(=O)C2(O)CCC2)[C@H]1Cc1csc(-c2cc(F)cc(F)c2)n1 [Example 339, N-((2S,3S)-2-((2-(3,5-difluorophenyl)-1,3-thiazol-4-yl)methyl)-1-((1-hydroxycyclobutyl)carbonyl)pyrrolidin-3-yl)methanesulfonamide] | 102 |
| CS(=O)(=O)N[C@H]1CCN(C(=O)N2CCC2)[C@H]1Cc1csc(-c2cc(F)cc(F)c2)n1 [Example 340, N-((2S,3S)-1-(azetidin-1-ylcarbonyl)-2-((2-(3,5-difluorophenyl)-1,3-thiazol-4-yl)methyl)pyrrolidin-3-yl)methanesulfonamide] | 103 |
| CS(=O)(=O)N[C@H]1CCN(C(=O)N2CC(F)C2)[C@H]1Cc1cccc(-c2cccc(F)c2)c1 [Example 341, N-((2S,3S)-1-((3-fluoroazetidin-1-yl)carbonyl)-2-((3′-fluorobiphenyl-3-yl)methyl)pyrrolidin-3-yl)methanesulfonamide] | 98 |
| CS(=O)(=O)N[C@H]1CCN(C(=O)N2CC(F)(F)C2)[C@H]1Cc1cccc(-c2cccc(F)c2)c1 [Example 342, N-((2S,3S)-1-((3,3-difluoroazetidin-1-yl)carbonyl)-2-((3′-fluorobiphenyl-3-yl)methyl)pyrrolidin-3-yl)methanesulfonamide] | 109 |
| CC1CCN1C(=O)N1CC[C@H](NS(C)(=O)=O)[C@@H]1Cc1cccc(-c2cccc(F)c2)c1 (stereo partly drawn) [Example 343, N-((2S,3S)-2-((3′-fluorobiphenyl-3-yl)methyl)-1-((2-methylazetidin-1-yl)carbonyl)pyrrolidin-3-yl)methanesulfonamide] | 107 |
| CS(=O)(=O)N[C@H]1CCN(C(=O)C2(O)CCC2)[C@H]1Cc1cccc(-c2cc(F)cc(F)c2)c1 [Example 344, N-((2S,3S)-2-((3′,5′-difluorobiphenyl-3-yl)methyl)-1-((1-hydroxycyclobutyl)carbonyl)pyrrolidin-3-yl)methanesulfonamide] | 99 |
| CS(=O)(=O)N[C@H]1CCN(C(=O)N2CCC2)[C@H]1Cc1cccc(-c2cc(F)cc(F)c2)c1 [Example 345, N-((2S,3S)-1-(azetidin-1-ylcarbonyl)-2-((3′,5′-difluorobiphenyl-3-yl)methyl)pyrrolidin-3-yl)methanesulfonamide] | 93 |
| CS(=O)(=O)N[C@H]1CCN(C(=O)C2(C#N)CCC2)[C@H]1Cc1cccc(-c2cccc(F)c2)c1 [Example 346, N-((2S,3S)-1-((1-cyanocyclobutyl)carbonyl)-2-((3′-fluorobiphenyl-3-yl)methyl)pyrrolidin-3-yl)methanesulfonamide] | 107 |
| CS(=O)(=O)N[C@H]1CCN(C(=O)N2CC3(CC3)C2)[C@H]1Cc1cccc(-c2cccc(F)c2)c1 [Example 347, N-((2S,3S)-1-(5-azaspiro[2.3]hex-5-ylcarbonyl)-2-((3′-fluorobiphenyl-3-yl)methyl)pyrrolidin-3-yl)methanesulfonamide] | 87 |
| CCS(=O)(=O)N[C@H]1CCN(C(=O)N2CCC2)[C@H]1Cc1csc(-c2cc(F)cc(F)c2)n1 [Example 348, N-((2S,3S)-1-(azetidin-1-ylcarbonyl)-2-((2-(3,5-difluorophenyl)-1,3-thiazol-4-yl)methyl)pyrrolidin-3-yl)ethanesulfonamide] | 109 |
| CC(C)(C)C(=O)N1CC[C@H](NS(C)(=O)=O)[C@@H]1Cc1cccc(-c2cccc(F)c2)c1F [Example 349, N-((2S,3S)-2-((2,3′-difluorobiphenyl-3-yl)methyl)-1-(2,2-dimethylpropanoyl)pyrrolidin-3-yl)methanesulfonamide] | 99 |
| CS(=O)(=O)N[C@H]1CCN(C(=O)C2CCC2)[C@H]1Cc1cccc(-c2cccc(F)c2)c1F [Example 350, N-((2S,3S)-1-(cyclobutylcarbonyl)-2-((2,3′-difluorobiphenyl-3-yl)methyl)pyrrolidin-3-yl)methanesulfonamide] | 99 |
| CC1(C(=O)N2CC[C@H](NS(C)(=O)=O)[C@@H]2Cc2cccc(-c3cccc(F)c3)c2F)CC1 [Example 351, N-((2S,3S)-2-((2,3′-difluorobiphenyl-3-yl)methyl)-1-((1-methylcyclopropyl)carbonyl)pyrrolidin-3-yl)methanesulfonamide] | 106 |
| CS(=O)(=O)N[C@H]1CCN(C(=O)N2CCC2)[C@H]1Cc1cccc(-c2cccc(F)c2)c1F [Example 352, N-((2S,3S)-1-(azetidin-1-ylcarbonyl)-2-((2,3′-difluorobiphenyl-3-yl)methyl)pyrrolidin-3-yl)methanesulfonamide] | 102 |
| CN(C)C(=O)N1CC[C@H](NS(C)(=O)=O)[C@@H]1Cc1cccc(-c2cc(F)cc(F)c2)c1 [Example 366, (2S,3S)-2-((3′,5′-difluorobiphenyl-3-yl)methyl)-N,N-dimethyl-3-((methylsulfonyl)amino)pyrrolidine-1-carboxamide] | 100 |
| CCS(=O)(=O)N[C@H]1CCN(C(=O)N(C)C)[C@H]1Cc1cccc(-c2cccc(F)c2)c1F [Example 373, (2S,3S)-2-((2,3′-difluorobiphenyl-3-yl)methyl)-3-((ethylsulfonyl)amino)-N,N-dimethylpyrrolidine-1-carboxamide] | 96 |
| CC(C)(O)C(=O)N1CC[C@H](NS(C)(=O)=O)[C@@H]1Cc1cccc(-c2cccc(F)c2)c1F [Example 387, N-((2S,3S)-2-((2,3′-difluorobiphenyl-3-yl)methyl)-1-(2-hydroxy-2-methylpropanoyl)pyrrolidin-3-yl)methanesulfonamide] | 106 |
| CCS(=O)(=O)N[C@H]1CCN(C(=O)C(C)(C)O)[C@H]1Cc1cccc(-c2cccc(F)c2)c1F [Example 389, N-((2S,3S)-2-((2,3′-difluorobiphenyl-3-yl)methyl)-1-(2-hydroxy-2-methylpropanoyl)pyrrolidin-3-yl)ethanesulfonamide] | 102 |
| CC(C)(O)C(=O)N1CC[C@H](NS(C)(=O)=O)[C@@H]1Cc1cccc(-c2cc(F)cc(F)c2)c1F [Example 395, N-((2S,3S)-1-(2-hydroxy-2-methylpropanoyl)-2-((2,3′,5′-trifluorobiphenyl-3-yl)methyl)pyrrolidin-3-yl)methanesulfonamide] | 104 |
| CCS(=O)(=O)N[C@H]1CCN(C(=O)N(C)C)[C@H]1Cc1cccc(-c2cc(F)cc(F)c2)c1F [Example 399, (2S,3S)-3-((ethylsulfonyl)amino)-N,N-dimethyl-2-((2,3′,5′-trifluorobiphenyl-3-yl)methyl)pyrrolidine-1-carboxamide] | 107 |
| CC(C)C(=O)N1CC[C@H](NS(C)(=O)=O)[C@@H]1Cc1cccc(-c2cc(F)cc(F)c2)c1F [Example 402, N-((2S,3S)-1-isobutyryl-2-((2,3′,5′-trifluorobiphenyl-3-yl)methyl)pyrrolidin-3-yl)methanesulfonamide] | 107 |
| CCS(=O)(=O)N[C@H]1CCN(C(=O)C(C)(C)O)[C@H]1Cc1cccc(-c2cc(F)cc(F)c2)c1 [Example 404, N-((2S,3S)-2-((3′,5′-difluorobiphenyl-3-yl)methyl)-1-(2-hydroxy-2-methylpropanoyl)pyrrolidin-3-yl)ethanesulfonamide] | 100 |
